Among the data in patent publication US8436011B2, “Pyridinopyridinone derivatives, preparation thereof and therapeutic use thereof” (Sanofi, priority 2008, dated 2013) are IC50 values, retold here.

The target of this assay is T1, FLT3 receptor (MV4-11 cell line bearing an FLT3ITD mutant) (Homo sapiens, UniProt P36888, INS600HVDFREYEYD).
T1 construct: MV4-11 cell line, which line is established from a leukaemia of constitutively active AML type bearing an FLT3ITD mutant; endogenous in cells; host or cells: MV4-11
T1 sequence (P36888 with tags, fused parts or gaps INS600HVDFREYEYD): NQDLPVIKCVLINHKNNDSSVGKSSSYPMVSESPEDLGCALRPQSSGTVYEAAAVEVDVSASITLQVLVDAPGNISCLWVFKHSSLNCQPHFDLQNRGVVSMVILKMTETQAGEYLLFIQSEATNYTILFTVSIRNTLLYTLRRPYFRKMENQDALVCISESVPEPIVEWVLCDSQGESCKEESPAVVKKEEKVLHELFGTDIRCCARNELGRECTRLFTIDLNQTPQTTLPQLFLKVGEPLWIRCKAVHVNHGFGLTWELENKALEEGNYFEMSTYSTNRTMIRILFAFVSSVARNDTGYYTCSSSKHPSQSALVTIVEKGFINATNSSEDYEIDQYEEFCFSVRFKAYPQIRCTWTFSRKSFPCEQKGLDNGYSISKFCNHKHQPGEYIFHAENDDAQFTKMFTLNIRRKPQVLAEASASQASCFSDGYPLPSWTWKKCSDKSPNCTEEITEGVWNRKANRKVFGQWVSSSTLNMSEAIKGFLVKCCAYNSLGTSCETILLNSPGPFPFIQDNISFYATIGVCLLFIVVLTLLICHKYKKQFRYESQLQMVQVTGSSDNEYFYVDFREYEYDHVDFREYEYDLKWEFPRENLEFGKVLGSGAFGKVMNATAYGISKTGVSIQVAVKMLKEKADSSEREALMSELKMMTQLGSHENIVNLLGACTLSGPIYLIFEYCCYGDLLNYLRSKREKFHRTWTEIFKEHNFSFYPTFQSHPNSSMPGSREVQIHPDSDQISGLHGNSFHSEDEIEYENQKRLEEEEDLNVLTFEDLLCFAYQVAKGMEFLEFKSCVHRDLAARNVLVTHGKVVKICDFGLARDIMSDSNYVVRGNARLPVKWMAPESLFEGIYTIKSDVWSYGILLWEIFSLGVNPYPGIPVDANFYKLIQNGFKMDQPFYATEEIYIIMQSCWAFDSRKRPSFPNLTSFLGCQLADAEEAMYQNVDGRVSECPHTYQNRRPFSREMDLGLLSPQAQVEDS
Nature of the assay: Inhibition of FLT3 receptor tyrosine kinase activity: proliferation of MV4-11 cells (CellTiter-Glo, 72 h). The assay is classed as cell-based. The following applies: 72 hours incubation, read-out: IC50 (concentration that inhibits 50% of the proliferation of the MV4-11 cells). The procedure: Measurement of Inhibition of the Tyrosine Kinase Activity of the FLT3 Receptor
The inhibitory effect of the compounds according to the invention towards the tyrosine kinase activity of the FLT3 receptor was evaluated on an MV4-11 cell line, which line is established from a leukaemia of constitutively active AML type bearing an FLT3ITD mutant. The inhibitory activity is correlated to the inhibition of cell growth, according to the protocols described by Spiekermann, K. et al., Blood, 2003, 101, (4) 1494-1504 and O'Farrell, A.-M. et al., Blood, 2003, 101, (9) 3597-3605.
MV4-11 cells are washed with PBS buffer and inoculated in 96-well plates, at a density of 1×10^5 cells/ml (100 μL per well), in RPMI 1640 containing 10% FCS, in the presence or absence of the test compounds. After incubation for 72 hours, the viable cells are quantified by measuring the cellular ATP by means of the CellTiter-Glo® kit (Promega, Cat G7571). The cells are treated according to the instructions given by the kit manufacturer, and the luminescence is measured using a Luminoskan (Ascent, Labsystem) with the following parameters: measurement: single; integration time: 1000 ms, lag time: 5 s.
The inhibitory activity with respect to the FLT3 receptor is given by the concentration that inhibits 50% of the proliferation of the MV4-11 cells.
For orientation: In ATP-based viability assays light output follows the ATP content of the culture.

The structures appear in SMILES notation.

`CCN1CC(F)(F)C[C@H]1CNC(=O)Cc1ccc(-c2ccc3c(=O)c(C(=O)NC)c(N)n(CC)c3n2)cc1` [compound 24, 2-amino-1-ethyl-7-{4-[2-({[(2S)-1-ethyl-4,4-difluoropyrrolidin-2-yl]methyl}-amino)-2-oxoethyl]phenyl}-N-methyl-4-oxo-1,4-dihydro-1,8-naphthyridine-3-carboxamide]: the IC50 stood at 190 nM.
Take `CCn1c(N)c(C(=O)NC)c(=O)c2ccc(-c3ccc(CC(=O)NCC4COCCN4C4CC4)cc3)nc21` (centres unmarked) [compound 33, 2-amino-7-[4-(2-{[(4-cyclopropylmorpholin-3-yl)methyl]amino}-2-oxoethyl)phenyl]-1-ethyl-N-methyl-4-oxo-1,4-dihydro-1,8-naphthyridine-3-carboxamide]: the IC50 worked out at 56 nM.
